Results published in patent US20060069132A1, “Azolecarboxamide herbicides” (priority 2004, published 2006).

Legend:
wheat = test: Test B postemergence herbicide test; type: in vivo, Triticum aestivum; set-up: key to Wheat plant response rating: 0 = no effect, 100 = complete control; conditions: postemergence
In short: (§1)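 Visual ratings, 0 (no effect) to 100 (complete control), made versus controls after 13–15 d greenhouse. Paddy plants treated at 2-leaf stage; postemergence plants at 1- to 4-leaf stage, 2–18 cm tall.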

barnyardgrass [1] = test: Test C flooded paddy test; type: in vivo, Echinochloa crus-galli
In short: (§2)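 Injury scored visually against controls on a 0 (no effect) to 100 (complete control) scale, 12 to 14 days after treatment in greenhouse. Flooded paddy plants treated at 2-leaf stage; postemergence plants at 1- to 4-leaf stage, 2 to 18 cm tall.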

lambsquarters = test: Test B pre-/postemergence herbicide test; type: in vivo, Chenopodium album; conditions: for Lambsquarters plant response rating: postemergence
In short: (§3)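 Formulation: non-phytotoxic solvent mix with surfactant. Timing: preemergence on seed and postemergence on 2–18 cm plants, applied concurrently. Readout after 13–15 d greenhouse: visual 0–100 control rating against controls.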

barnyardgrass [2] = test: Test B flooded paddy test; type: in vivo, Echinochloa crus-galli; conditions: 1000 g ai/ha, scale 0 to 100 (0 no effect, 100 complete control)
In short: (§4)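 Formulated test chemicals went onto postemergence plants measuring 2 to 18 cm, at one to four leaves. For the paddy assay, species had reached two leaves. Scoring took place 13–15 days later by eye, relative to untreated plants, using 0 for no effect up to 100 for full control.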

wild oat = test: Test B postemergence herbicide test; type: in vivo, Avena fatua; conditions: postemergence
In short: as §1

corn = test: Test B pre-/postemergence herbicide test; type: in vivo, Zea mays; conditions: for Corn plant response rating: postemergence
In short: as §3

morningglory = test: Test B pre-/postemergence herbicide test; type: in vivo, Ipomoea coccinea; conditions: for Morningglory plant response rating: postemergence
In short: (§5)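 Plants compared with untreated controls 13–15 days post-treatment and given a visual 0–100 injury score. Applications: preemergence to seeds; postemergence at 1- to 4-leaf (2–18 cm); paddy species flooded, 2-leaf stage. Vehicle non-phytotoxic, surfactant included.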

rice [3] = test: Test B pre-/postemergence herbicide test; type: in vivo, Oryza sativa; conditions: preemergence
In short: as §3

giant foxtail = test: Test B pre-/postemergence herbicide test; type: in vivo, Setaria faberi; conditions: for Foxtail, Giant plant response rating: postemergence
In short: as §3

blackgrass = test: Test B postemergence herbicide test; type: in vivo, Alopecurus myosuroides; conditions: postemergence
In short: as §4

large crabgrass = test: Test B pre-/postemergence herbicide test; type: in vivo, Digitaria sanguinalis; conditions: for Crabgrass, Large plant response rating: postemergence
In short: as §3

rice [4] = test: Test B flooded paddy test; type: in vivo, Oryza sativa; conditions: 1000 g ai/ha, scale 0 to 100 (0 no effect, 100 complete control)
In short: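 Scale 0–100: zero equals no visible effect, 100 complete control, judged by eye relative to controls. Timing: 13 to 15 days in greenhouse post-treatment. Growth stage at spraying: two leaves (paddy) or one to four leaves, 2–18 cm (postemergence).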

Surinam grass = test: Test B pre-/postemergence herbicide test; type: in vivo, Urochloa decumbens; conditions: for Surinam Grass plant response rating: postemergence
In short: as §3

velvetleaf = test: Test B pre-/postemergence herbicide test; type: in vivo, Abutilon theophrasti; conditions: for Velvetleaf plant response rating: postemergence
In short: as §3

cocklebur = test: Test B pre-/postemergence herbicide test; type: in vivo, Xanthium strumarium; conditions: for Cocklebur plant response rating: postemergence
In short: as §5

ducksalad [5] = test: Test B flooded paddy test; type: in vivo, Heteranthera limosa; conditions: 1000 g ai/ha, scale 0 to 100 (0 no effect, 100 complete control)
In short: as §4

ducksalad [6] = test: Test C flooded paddy test; type: in vivo, Heteranthera limosa
rice [7] = test: Test C flooded paddy test; type: in vivo, Oryza sativa
In short: as §2

[8] = system: smallflower umbrella sedge; test: Test C flooded paddy test; type: in vivo, Cyperus difformis
barnyardgrass [9] = test: Test B pre-/postemergence herbicide test; type: in vivo, Echinochloa crus-galli; conditions: for Barnyardgrass plant response rating: postemergence
In short: as §5

pigweed = test: Test B pre-/postemergence herbicide test; type: in vivo, Amaranthus retroflexus; conditions: for Pigweed plant response rating: postemergence
In short: as §3

[10] = system: small flower umbrella sedge; test: Test B flooded paddy test; type: in vivo, Cyperus difformis; conditions: 1000 g ai/ha, scale 0 to 100 (0 no effect, 100 complete control)
In short: as §4

[11] = 125 g ai/ha, visual rating, scale 0 (no effect) to 100 (complete control)
[12] = 500 g ai/ha, scale 0 to 100, 0 is no effect, 100 is complete control
[13] = 125 g ai/ha, scale 0 to 100 (0 no effect, 100 complete control)
[14] = 250 g ai/ha, scale of 0 to 100, 0 is no effect, 100 is complete control
[15] = 500 g ai/ha, visual rating after 12 to 14 days, scale 0 to 100 (0 no effect, 100 complete control)
[16] = 500 g ai/ha, visual rating, 0 = no effect, 100 = complete control, preemergence
[17] = 125 g ai/ha, 0 is no effect, 100 is complete control, preemergence

## CCN1N=C(C(C)(C)C)CC1C(=O)Nc1cc(C(=O)N2CCCCC2)ccc1F (racemic) [Compound 331]
wheat; [11]
  Wheat plant response rating: 20
wheat; [12]
  Wheat plant response rating: 20
Barnyardgrass [1]; 62 g ai/ha, scale 0 to 100 (0 no effect, 100 complete control)
  Barnyardgrass plant response rating: 0
Barnyardgrass [1]; [13]
  Barnyardgrass plant response rating: 10
Barnyardgrass [1]; [14]
  Barnyardgrass plant response rating: 40
Barnyardgrass [1]; [15]
  Plant response rating, Barnyardgrass: 65
lambsquarters; [11]
  Lambsquarters plant response rating: 60
lambsquarters; [16]
  Plant response rating, Lambsquarters: 100
lambsquarters; [12]
  Lambsquarters plant response rating: 70
Barnyardgrass [2]
  Barnyardgrass plant response rating: 80
Wild oat; [11]
  Oat, Wild plant response rating: 10
Wild oat; [12]
  Oat, Wild plant response rating: 30
corn; [17]
  Plant response rating (0 to 100 scale), Corn: 20
corn; [11]
  Corn plant response rating: 0
corn; [16]
  Plant response rating, Corn: 40
corn; [12]
  Corn plant response rating: 0
morningglory; [17]
  Plant response rating (0 to 100 scale), Morningglory: 0
morningglory; [11]
  Morningglory plant response rating: 0
morningglory; [16]
  Plant response rating, Morningglory: 0
morningglory; [12]
  Morningglory plant response rating: 10
Rice [3]; 125 g ai/ha, 0 is no effect, 100 is complete control
  Plant response rating (0 to 100 scale), Rice: 30
Rice [3]; 500 g ai/ha, visual rating, 0 = no effect, 100 = complete control
  Plant response rating, Rice: 40
Giant foxtail; [17]
  Plant response rating (0 to 100 scale), Foxtail, Giant: 20
Giant foxtail; [11]
  Foxtail, Giant plant response rating: 0
Giant foxtail; [16]
  Plant response rating, Foxtail, Giant: 80
Giant foxtail; [12]
  Foxtail, Giant plant response rating: 30
blackgrass; [11]
  Blackgrass plant response rating: 10
blackgrass; [12]
  Blackgrass plant response rating: 20
Large crabgrass; [17]
  Plant response rating (0 to 100 scale), Crabgrass, Large: 60
Large crabgrass; [11]
  Crabgrass, Large plant response rating: 10
Large crabgrass; [16]
  Plant response rating, Crabgrass, Large: 80
Large crabgrass; [12]
  Crabgrass, Large plant response rating: 10
Rice [4]
  Rice plant response rating: 60
Surinam grass; [17]
  Plant response rating (0 to 100 scale), Surinam Grass: 40
Surinam grass; [11]
  Surinam Grass plant response rating: 10
Surinam grass; [16]
  Plant response rating, Surinam Grass: 60
Surinam grass; [12]
  Surinam Grass plant response rating: 20
velvetleaf; [17]
  Plant response rating (0 to 100 scale), Velvetleaf: 20
velvetleaf; [11]
  Velvetleaf plant response rating: 10
velvetleaf; [16]
  Plant response rating, Velvetleaf: 80
velvetleaf; [12]
  Velvetleaf plant response rating: 20
cocklebur; [17]
  Plant response rating (0 to 100 scale), Cocklebur: 0
cocklebur; [11]
  Cocklebur plant response rating: 10
cocklebur; [16]
  Plant response rating, Cocklebur: 0
cocklebur; [12]
  Cocklebur plant response rating: 30
Ducksalad [5]
  Ducksalad plant response rating: 90
Ducksalad [6]; 62 g ai/ha, scale 0 to 100
  Ducksalad plant response rating: 0
Ducksalad [6]; [13]
  Ducksalad plant response rating: 50
Ducksalad [6]; [14]
  Ducksalad plant response rating: 65
Ducksalad [6]; [15]
  Plant response rating, Ducksalad: 85
Rice [7]; 62 g ai/ha, scale 0 to 100
  Rice plant response rating: 0
Rice [7]; [13]
  Rice plant response rating: 15
Rice [7]; [14]
  Rice plant response rating: 50
Rice [7]; [15]
  Plant response rating, Rice: 65
[8]; 62 g ai/ha, scale 0 to 100
  Sedge, Umbrella plant response rating: 0
[8]; [13]
  Sedge, Umbrella plant response rating: 20
[8]; [14]
  Sedge, Umbrella plant response rating: 25
[8]; [15]
  Plant response rating, Sedge, Umbrella: 65
Barnyardgrass [9]; [17]
  Plant response rating (0 to 100 scale), Barnyardgrass: 60
Barnyardgrass [9]; [11]
  Barnyardgrass plant response rating: 10
Barnyardgrass [9]; [16]
  Plant response rating, Barnyardgrass: 70
Barnyardgrass [9]; [12]
  Barnyardgrass plant response rating: 20
pigweed; [17]
  Plant response rating (0 to 100 scale), Pigweed: 40
pigweed; [11]
  Pigweed plant response rating: 10
pigweed; [16]
  Plant response rating, Pigweed: 50
pigweed; [12]
  Pigweed plant response rating: 50
[10]
  Sedge, Umbrella plant response rating: 90
